Laboratory results taken from patent US20190298743A1, “TREATMENT OF PAIN” (Takeda Pharmaceutical Company Limited, priority 2016, published 2019).

Experiments:
PAR2 [1] = experiment: BRET resensitisation assay, PAR2-RLuc8 with TGN38-venus in HEK293 cells; type: cell-based; conditions: 30 minute pre-treatment, all three proteases
Description: BRET resensitisation assays were used to quantify export of PAR2 from the trans-golgi network (TGN38-venus) upon stimulation of receptor expressed at the cell surface with a variety of proteases. The assays were repeated with various inhibitors of signaling nodes to verify signaling mechanisms behind receptor resensitisation.
After achieving ˜50% confluency within 10 cm dishes HEK293 cells were transiently transfected with PAR2-RLuc8 (1 μg) and TGN38-Venus (4 μg) using PEI as a transfection agent. 24 hours post transfection, cells were seeded into poly-D-lysine coated 96-well isoplates. BRET experiments were conducted the following day. Cells were allowed to equilibrate in either 1×HBSS (+0-28 g HEPES/100 ml, pH 7-40), […] Gallein (Gβγ inhibitor), 100 nM CRT0066101 (PKD inhibitor) or G06983 (PKC inhibitor) at 37° C. for 30 minutes before the addition of colenterazine H [5 μM]. Following a 5 minute incubation BRET was assessed using a LUMIstar Omega microplate reader (BMG LabTech, Offenburg, Germany), with luminescence being read at 535 nm and 475 nm. A 4 minute baseline was obtained before the addition of vehicle (1×HBSS) or protease, measurements were then continued for a further 30 minutes. BRET ratios were calculated using LUMIstar MARS analysis software and then corrected to baseline and vehicle treatments in Microsoft Excel 2013.

PAR2 [2] = experiment: BRET receptor trafficking, PAR2-RLuc8 with plasma membrane marker RIT-venus in HEK293 cells; type: cell-based; conditions: for Effect on trypsin evoked internalisation, plasma membrane marker: 30 μM inhibitor, 30 minute pre-treatment
Description: (§1) Bret studies of receptor trafficking were conducted to quantify PAR2 internalisation (RIT-venus) and trafficking to early endosomes (Rab5a-venus) upon stimulation with different agonists.
(§2) After achieving ˜50% confluency within 10 cm dishes HEK293 cells were transiently transfected with 1 μg PAR2-RLuc8 and 4 μg of either RIT-venus or Rab5a-venus using PEI as a transfection agent. 24 hours post transfection, cells were seeded into poly-D-lysine coated 96-well isoplates. […] When used endocytic inhibitors were diluted in 1×HBSS+1% dimethyl sulfoxide (DMSO). Following the replacement of culture media cells were allowed to equilibrate at 37° C. for 30 minutes before the addition of colenterazine H [5 μM]. After a further 5 minute incubation BRET was assessed using a LUMIstar Omega microplate reader (BMG LabTech, Offenburg, Germany), with luminescence being read at 535 nm and 475 nm. A 4 minute baseline was obtained before the addition of vehicle (1×HBSS+/−1% DMSO) or protease, measurements were then continued for a further 30 minutes. BRET ratios were calculated using LUMIstar MARS analysis software and then corrected to baseline and vehicle treatments in Microsoft Excel 2013.

PAR2 [3] = experiment: BRET receptor trafficking, PAR2-RLuc8 with early endosomal marker Rab5a-venus in HEK293 cells; type: cell-based; conditions: for Effect on trypsin evoked internalisation, early endosomal marker: 30 μM inhibitor, 30 minute pre-treatment
Description: as §1, §2

DRG neurons = experiment: Perforated patch-clamp excitability (rheobase) of isolated DRG neurons; type: cell-based, mice; conditions: for Effect of inhibitor alone on rheobase: 0 or 30 min; for Effect on cathepsin S- or elastase-induced decrease in rheobase (sustained excitability) at 30 min / Effect on trypsin-induced decrease in rheobase (sustained excitability) at 30 min / Effect on protease induced decrease in rheobase (initial hyperexcitability) at 0 min: inhibitor 30 min before and during protease; for Effect on protease induced decrease in rheobase (initial hyperexcitability) at 0 min: trypsin, cathepsin S or elastase
Description: To assess the effects of proteases on excitability of nociceptors, DRG neurons were preincubated with trypsin, cathepsin S, elastase or vehicle (control), washed, and rheobase and action potential discharge at a current of twice rheobase were measured at 0 min or 30 min after washing.
DRG (T9-T13) from C57BL/6 mice were digested by incubation in collagenase (1 mg/ml, Worthington Biochemical, Lakewood, N.J.) and dispase (4 mg/ml, Roche Life Science, Indianapolis, Ind.) for 10 min at 37° C., and were dispersed by trituration with a fire-polished Pasteur pipette. Cells were plated onto coverslips coated with laminin (0.017 mg/ml) and poly-D-lysine (2 mg/ml) in 24-well plates. Neurons were cultured in F12 medium (Cat N668, Lot RNBD5333, Sigma-Aldrich, St Louis, Mo. USA) containing 10% fetal calf serum, with penicillin and streptomycin and maintained at 37° C. in a humidified atmosphere of 95% air and 5% CO2 until retrieval (16 h) for electrophysiological studies.
Neuronal excitability was assessed by perforated patch-clamp recordings with amphotericin B (240 μg/ml) from small diameter neurons (<30 pF capacitance) in current clamp mode at room temperature. Only neurons with resting membrane potentials more negative than −40 mV were analyzed. Changes in excitability were quantified by measuring rheobase (minimum current to fire action potential) and numbers of action potentials discharged at twice rheobase. Recordings were made using Axopatch 200B amplifiers, digitized by Digidata 1322A and stored and processed using pClamp 10.1 software (Molecular Devices, Sunnyvale, Calif.). The recording chamber was continuously perfused with external solution at 2 ml/min. External solution was (mM): 140 NaCl, 5 KCl, 10 HEPES, 10 D-glucose, 1 MgCl2, 2 CaCl2; pH to 7.4 with 3 M NaOH. Pipette solution was (mM): 110 K-gluconate, 30 KCl, 10 HEPES, 1 MgCl2, 2 CaCl2; pH 7.25 with 1 M KOH.
DRG neurons were pre-incubated with vehicle (control) or proteases using conditions that we have reported to cause robust hyperexcitability: trypsin (50 nM, 10 min), elastase (10 U/ml, 390 nM, 30 min), Cat-S (500 nM, 60 min). Neurons were then washed and maintained in protease-free F12 medium. Neuronal excitability was assessed 0 or 30 min after washing. In some experiments, neurons were incubated with vehicle (0.3% DMSO), Dyngo4a (30 μM) or PitStop2 (15 μM) for 30 min before and during incubation with proteases.
Results are expressed as mean±SE. Two way ANOVA and post hoc Tukey's tests were used to analyze the data.

[4] = Protease-evoked mechanical hyperalgesia, von Frey paw withdrawal; type: in vivo, mice; conditions: for Effect on trypsin-evoked mechanical hyperalgesia: 30 min before trypsin
Description: (§3) Immediately before experiments the mice were acclimatized to the experimental apparatus, room and investigator for 1-2 h on 2 successive days. Mechanical nociceptive responses were evaluated by paw withdrawal to stimulation of the plantar surface of the hind-paw with calibrated von Frey filaments. von Frey scores were measured in triplicate to establish a baseline for each animal on the day before experiments. Paw edema was estimated by measuring the thickness of the hindpaw using digital calipers before and after treatments. Mice were […] with 5% isoflurane for intraplantar injections. Dyngo4a (50 μM), PitStop2 (50 μM) or vehicle (0.2% DMSO in 0.9% NaCl) (all 10 μl) were injected into the left hindpaw. After 30 min, trypsin (10 nM), Cat-S (2.5 μM) or elastase (30 U) (all 10 μl) were injected into the same left hindpaw. von Frey scores (left and right paws) and paw thickness (left paw) were measured hourly for up to 4 h after protease injection. Investigators were blinded to the test agents.

[5] = Protease-evoked paw edema, hindpaw thickness; type: in vivo, mice
Description: as §3

PAR2 [6] = experiment: BRET proximity of PAR2 to KRas (plasma membrane) and Rab5a (endosomes) in HEK cells; type: cell-based
Description: (§4) The contribution of endocytosis of protease-activated receptor-2 (PAR2) was evaluated for generation of signals in subcellular compartments that mediate protease-evoked sensitization of nociceptors. Bioluminescence resonance energy transfer (BRET) was used to assess the proximity of PAR2 to resident proteins of the plasma membrane (KRas) and endosomes (Rab5a) in HEK cells. […] Förster resonance energy transfer (FRET) biosensors targeted to the plasma membrane, cytosol or nucleus were used to examine the capacity of proteases to generate signals in subcellular compartments of HEK cells and rat dorsal root ganglia neurons. […] Dynamin inhibitor Dyngo4a, Clathrin inhibitor Pitstop2 and dominant negative β-arrestin inhibited trypsin-evoked endocytosis of PAR2, and prevented trypsin-evoked activation of cytosolic cAMP and PKC and nuclear ERK. […] To examine the link between PAR2 endocytosis, compartmentalized signaling and nociceptor sensitization, perforated patch clamp recordings were made from mouse dorsal root ganglia neurons. […] The effects of proteases on excitability were blocked by the PAR2 antagonist GB88. Thus, canonical and biased proteases sensitize nociceptors by distinct mechanisms. For canonical agonists, PAR2 endocytosis generates compartmentalized signals subcellular compartments that underlie sustained excitability of nociceptive neurons. Inhibiting endosomal signaling of PAR2 may provide a novel method of treating protease-evoked pain.

PAR2 [7] = experiment: FRET biosensors for compartmentalised cAMP, PKC and ERK signals in HEK cells and rat dorsal root ganglia neurons; type: cell-based
Description: as §4

PAR2 [8] = experiment: Whole population FRET with cytosolic ERK sensor CytoEKAR in HEK293 cells; type: cell-based
Description: (§5) Förster Resonance Energy Transfer (FRET) was used to characterise PAR2 mediated ERK within different subcellular compartments upon stimulation with different agonists. The assays were repeated after employing pharmacological and genetic approaches shown to abolish receptor internalisation to assess the role of internalisation in generating compartmentalised signals.
(§6) After achieving ˜50% confluency within 10 cm dishes HEK293 cells were transfected with 2-5 μg of PAR2 with N-terminal HA epitope tag (PAR2-HA) and 2-5 μg of desired FRET biosensor, using PEI as a transfection agent. 24 hours after transfection, cells were seeded into poly-D-lysine coated black 96 well isoplates. FRET was assessed 48 hours after cell plating, following overnight serum restriction. […] When used endocytic inhibitors were diluted in 1×HBSS+1% dimethyl sulfoxide (DMSO). Following the replacement of culture media cells were allowed to equilibrate at 37° C. for 30 minutes. FRET was then determined using a PHERAstar FS microplate reader (BMG LabTech, Offenburg, Germany), cells were sequentially excited at 430 nm with emissions being read at 550 nm and 490 nm. A 4 minute baseline was obtained before the addition of vehicle (1×HBSS+/−1% DMSO), protease or 1 μM PDBu (serving as a positive control). Measurements were then continued every minute for a further 30 minutes. FRET ratios were then calculated and corrected to baseline and vehicle treatments in Microsoft Excel 2013.

PAR2 [9] = experiment: Whole population FRET with nuclear ERK sensor NucEKAR in HEK293 cells; type: cell-based
Description: as §5
as §6, with “Measurements were then continued every minute for a further 30 minutes.” left out

[10] = intraplantar 50 μM, 30 min before protease

| Compound | Effect on protease induced PAR2 trafficking away from the trans-golgi network (PAR2 [1]) | Effect on trypsin evoked internalisation, plasma membrane marker (PAR2 [2]) | Effect on trypsin evoked internalisation, early endosomal marker (PAR2 [3]) | Effect of inhibitor alone on rheobase (DRG neurons) | Effect on cathepsin S- or elastase-induced decrease in rheobase (sustained excitability) at 30 min (DRG neurons) | Effect on trypsin-induced decrease in rheobase (sustained excitability) at 30 min (DRG neurons) | Effect on protease induced decrease in rheobase (initial hyperexcitability) at 0 min (DRG neurons) | Effect on trypsin-evoked mechanical hyperalgesia ([4]; intraplantar 50 μM) | Effect on trypsin-evoked endocytosis of PAR2 (PAR2 [6]) | Effect on trypsin-evoked activation of cytosolic cAMP and PKC and nuclear ERK (PAR2 [7]) | also measured |
| --- | --- | --- | --- | --- | --- | --- | --- | --- | --- | --- | --- |
| CC[C@@H](N)CNc1ccnc(-c2cc(-c3cnn(C)c3)ccc2O)n1.Cl.Cl [CRT0066101] | Less prominent effects |  |  |  |  |  |  |  |  |  |  |
| O=C(N/N=C/c1cc(O)c(O)cc1O)c1cc2ccccc2cc1O [Dyngo4a, reference compound] |  | less pronounced inhibition | less pronounced inhibition | Neither vehicle, PitStop2 nor Dyngo4a alone affected rheobase | no effect and not | prevented | did not affect | inhibited | inhibited | prevented | Effect on Cat-S- or elastase-evoked mechanical hyperalgesia [4, 10]: did not affect; Effect on trypsin-, Cat-S- or elastase-evoked edema [5, 10]: did not affect |
| COc1ccc2c(c1)c(C1=C(c3c[nH]c4ccccc34)C(=O)NC1=O)cn2CCCN(C)C [G06983] | Less prominent effects |  |  |  |  |  |  |  |  |  |  |
| O=C1OC2(c3ccccc31)c1ccc(O)c(O)c1Oc1c2ccc(O)c1O [Gallein] | reduced PAR2 trafficking away from the trans-golgi network |  |  |  |  |  |  |  |  |  |  |
| O=C1NC(=NS(=O)(=O)c2cccc3ccccc23)S/C1=C\c1ccc(Br)cc1 [PitStop2, reference compound] |  | reduced the magnitude of BRET | reduced the magnitude of BRET | Neither vehicle, PitStop2 nor Dyngo4a alone affected rheobase | no effect | prevented | did not affect | inhibited | inhibited | prevented | Effect on trypsin evoked cytosolic ERK phosphorylation (PAR2 [8]; 30 μM inhibitor, 30 minute pre-treatment): diminished; Effect on cathepsin S- or elastase-induced decrease in rheobase (sustained excitability) at 30 min (DRG neurons; listed as Pitstop2): not |
| elastase |  |  |  |  |  |  |  |  |  |  | Change in BRET between PAR2 and plasma membrane marker upon agonist stimulation (PAR2 [2]; trypsin 10 nM): not observed; Change in BRET between PAR2 and early endosomal marker upon agonist stimulation (PAR2 [3]; trypsin 10 nM): not observed; Ability of agonist to produce ERK signals within the cytoplasm (PAR2 [8]): not; Ability of agonist to produce ERK signals within the nucleus (PAR2 [9]): not; Effect of protease on excitability (rheobase) of DRG neurons (DRG neurons; 0 min and 30 min after washing): immediate increase in excitability; Mechanical hyperalgesia after intraplantar injection of protease ([4]; ipsilateral paw): caused mechanical hyperalgesia of the ipsilateral paw that was sustained for at least 4 h; Edema after intraplantar injection of protease ([5]; ipsilateral paw): edema of the ipsilateral paw that was maximal after 4 h; PAR2 endocytosis induced by agonist (PAR2 [6]; HEK cells): did not induce PAR2 endocytosis; Signals generated by protease in subcellular compartments (PAR2 [7]): only activated cAMP and PKC at the plasma membrane and ERK in the cytosol |
